# In patent US11680078B2, “Anticancer compounds” (GODAVARI BIOREFINERIES LIMITED, priority 2017, dated 2023):
# Read-outs that look alike come from different tables or passages of the source.
# What was measured:
# spheres of PC3 = experiment: In vitro sphere-forming assay, PC3 in Prostosphere media; format: cell-based; conditions: 2000 cells/well, n = 6 ± S.D
# Description: (§1) Sphere assay measures the ability of Cancer Stein Cells to form spheres in specially designed serum-free medium. We have used this assay to measure the killing efficiency of the test compounds as compared to the standard chemotherapeutic drug, Cisplatin.
# (§2) Materials and Reagents:50× B27 Supplement (Life Technologies, Invitrogen, Catalog No.: 17502-044), Fibroblast Growth Factor (FGF) (Sigma-Aldrich, Catlog No.: F029125), Epidermal Growth Factor (EGF) (Sigma-Aldrich, Catlog No.: E9644), Insulin (Sigma, Catlog No.: 19278), Dulbecco's Modified Eagle Medium/F12 (HiMedia Catlog No.: AL139-6), Dulbecco's Phosphate Buffered Saline (HiMedia Catlog No.: TL1006), Trypan Blue (TC193), Prostate Epithelial Media (LONZA, Catlog No.: CC-3166) MEGM (LONZA, Catlog No.: CC-3051), Heparin (Sigma, Catlog No.: H3393), Penstrep (HiMedia, Catlog No.: A002)
# Prostosphere Media Preparation (For 100 mL):1 g methyl cellulose autoclaved with magnetic stirrer, Plain media (Prostate Epithelial Basal Medium), 100 mL added and dissolved, under magnetic stirring. After complete dissolution, add: Insulin-40 μL, B27-2 mL, EGF-80 μL, Penstrep-1 ml.
# (§3) Procedure: —The cells were trypsinised and made into single-cell suspension by passing through cell strainers ([…], respectively), The cells were diluted at the concentration of 2000 cells/100 μL and suspended in either Mammosphere (for breast cell lines) or Prostosphere (for prostate cell lines). 100 μL of this suspension was added into each well of 96-well suspension plates and incubated at 37° C., 5% CO2 for 24 hrs. Appropriate concentrations of the drugs (2 μL) were added into respective wells with 100 μL of stem cell culture medium. Plates were incubated at 37° C., 5% CO2 for 72 hrs. After incubation 2.5 μL of the respective drug concentration and 50 μL of stem cell culture medium were added into each well and the plates were further incubated at 37° C., 5% CO2 for 72 hrs. 3 μL of the respective drug concentration was added with 50 μL of stem cell culture medium again after incubation and plates were incubated again for 72 hrs at 37° C., 5% CO2. Number of primary spheres formed for each concentration was counted. A comparative graph of number of spheres formed was plotted against the concentration and the growth curve was compared with the positive control.
# spheres of MDAMB231 = experiment: In vitro sphere-forming assay, MDAMB231 in Mammosphere media; format: cell-based; conditions: 2000 cells/well, n = 6 ± S.D
# Description: as §1, §2
# Mammosphere Media Preparation (For 100 mL): 1 g methyl cellulose autoclaved with magnetic stirrer Plain media (MEBM), 100 mL added and dissolved under magnetic stirring. After complete dissolution, add: FGF-80 μL, EGF-40 μL, Penstrep-1 mL, Heparin-400 μL.
# as §3
# PC3 [1] = experiment: MTT antiproliferative assay, PC3; format: cell-based; conditions: Homo sapiens, PC-3; PC3 prostate cell line, 48 hrs drug incubation
# Procedure: (§4) MTT assay is a simple and sensitive assay where, metabolic reducing activity of the cells is measured. The increase of this activity in time is taken as a parameter of cell growth. If treatment with a drug impairs this increase, the action may be a consequence of growth inhibition, cell killing or both. The compounds of Formula V to XIV of the present invention, standard cytotoxic drug (e.g. Cisplatin) were tested at different concentrations (1, 0.1, 0.01, 0.001 mM) using breast and prostate cancer cell lines. All cell lines were cultured in a 37° C. incubator with a 5% CO2 environment. Compounds were dissolved in DMSO with a concentration of 0.1M (stock solution). Cells were seeded into 96-well plates at suitable plating efficiency.
# (§5) Following Plating Efficiencies were Standardized for MTT Assay:
# (§6) The MTT procedure followed was as follows. Briefly, the cells were plated in 96 well plate as per predetermined plating efficiency (Table 1) The plates were then incubated for 24 hrs in 5% CO2 atmosphere at 37° C. Appropriate concentrations of the drugs were then added to the plate and further incubation was carried out for 48 hrs (in 5% CO2 atmosphere at 37° C.). The assay plate was then centrifuged twice at 3000 rpm for 3 mins and supernatant was then discarded. 100 ul of MTT solution (0.5 mg/ml) was then added to each well of the plate and it was further incubated for 4 hrs (in 5% CO2 atmosphere at 37° C.) Following 4 hr incubation, the plate was then centrifuged twice, and supernatant was aspirated off very carefully. 200 ul of DMSO was then added to each well to solubilize. MTT crystals and mixed well by shaking the plate. XY graph of log Percent viability was then plotted against log drug concentration. […] (Drug concentration inhibiting the 50% of cell population) was then calculated by regression analysis.
# MDAMB231 [2] = experiment: MTT antiproliferative assay, MDAMB231; format: cell-based; conditions: Homo sapiens, MDA-MB-231; MDAMB231 breast cell line, 48 hrs drug incubation
# Procedure: as §4, §5, §6
# DU145 = experiment: MTT antiproliferative assay, DU145; format: cell-based; conditions: Homo sapiens, DU-145; DU145 prostate cell line, 48 hrs drug incubation
# Procedure: as §4, §5, §6
# MDAMB231 [3] = experiment: Soft Agar colony-formation Assay, MDAMB231; format: cell-based; conditions: Homo sapiens, MDA-MB-231, 168 h; MDAMB231 breast cell line, 1 week
# Procedure: (§7) The Soft Agar Colony-formation Assay is an anchorage-independent growth assay in soft agar, which is one of the most stringent assays for detecting malignant transformation of cells. For this assay, malignant cells are cultured with appropriate controls in soft agar medium for 1-2 weeks. Following this incubation period, formed colonies can either be analyzed morphologically using cell stain and quantifying the number of colonies formed.
# (§8) Briefly, for Soft Agar Assay a mixture of 50 ul of 2× medium (taken appropriately as per cell line) and 50 ul of 1.2% Bacto Agar were plated on to each well of 96 well micro titer assay plate. 10 ul of cells (Of specific plating efficiency pre-standardized for respective cell line) were mixed with 20 ul of 2× medium and 30 ul of 0.8% of Bacto Agar and 1.6 ul of drug (of appropriate concentration) in a vial and transferred to the solidified pre-layers of the assay plates. The cells were then allowed to grow and form colonies at 37° C. and 5% CO2 for 1 week. An intermittent feeding with 50 ul of appropriate 2× medium was performed after 3 days of experimental set up. 16 ul of Alamar Blue (1.5 mg/ml) was then added to all the wells to quantify the developed colonies. The plates were incubated for 24 hrs at 37° C. Absorbance was then measured at 630 nm. XY graph of log Percent viability was then plotted against log drug concentration. IC50 (Drug concentration inhibiting the 50% of cell population) was then calculated by regression analysis.
# (§9) Following Plating Efficiencies Were Standardized for Soft Agar Assay: […]
# PC3 [4] = experiment: Soft Agar colony-formation Assay, PC3; format: cell-based; conditions: Homo sapiens, PC-3, 168 h; PC3 prostate cell line, 1 week
# Procedure: as §7, §8, §9
# MCF7 = experiment: MTT antiproliferative assay, MCF7; format: cell-based; conditions: Homo sapiens, MCF7; MCF-7 breast cell line, 48 hrs drug incubation
# Procedure: as §4, §5, §6
# normal lymphocytes [5] = experiment: Normal cell assay (MTT) on lymphocytes from a healthy donor
# Procedure: (§10) In order to test the activity of cytotoxic drugs towards normal cells, we performed MTT
# (§11) Assay for these cytotoxic drugs using lymphocytes obtained from a healthy donor.
# (§12) Briefly, diluted defibrinated fresh blood was overlaid gradually on HiSeP LSM1077 and centrifuged at low speed for 30 mins. The lymphocyte layer (the buffy coat) (Fig) was carefully removed in a new collection tube. The buffy coat was given another wash, by the diluent buffer, to reduce the platelet contamination. The supernatant was discarded, and the pellet was resuspended in diluent buffer. The viability was checked by Haemocytometer. Cells with Viability and Purity of 95% and more were considered for the assay. MTT assay was performed with these cells as described above with plating efficiency of 0.7 million/ml.
# normal lymphocytes [6] = tested on: normal lymphocytes
# Procedure: as §10, §11, §12
Structure (SMILES),3D sphere count of PC3 (spheres of PC3; drug conc 0.025 uM),3D sphere count of PC3 (spheres of PC3; drug conc 0.25 uM),3D sphere count of PC3 (spheres of PC3; drug conc 2.5 uM),3D sphere count of PC3 (spheres of PC3; drug conc 25 uM),3D sphere count of PC3 (spheres of PC3; drug conc 250 uM),3D sphere count of MDAMB231 (spheres of MDAMB231; drug conc 0.025 uM),3D sphere count of MDAMB231 (spheres of MDAMB231; drug conc 0.25 uM),3D sphere count of MDAMB231 (spheres of MDAMB231; drug conc 2.5 uM),3D sphere count of MDAMB231 (spheres of MDAMB231; drug conc 25 uM),3D sphere count of MDAMB231 (spheres of MDAMB231; drug conc 250 uM),IC50 (PC3 [1]),IC50 (MDAMB231 [2]),IC50 (DU145),IC50 (MDAMB231 [3]),IC50 (PC3 [4]),IC50 (MCF7),activity on normal lymphocytes (normal lymphocytes [5]),activity on normal lymphocytes (normal lymphocytes [6])
"COc1cc2c(OC(=O)c3cccn3C)c3c(c(-c4ccc5c(c4)OCO5)c2cc1OC)C(=O)OC3 [Formula VII, 9-(benzo[d][1,3]dioxol-5-yl)-6,7-dimethoxy-1-oxo-1,3-dihydronaphtho[2,3-c]furan-4-yl 1-methyl-1H-pyrrole-2-carboxylate]",64(±8),31(±5),23(±3),9(±2),0(±0),47(±4),46(±7),40(±7),40(±3),0(±0),6.32 µM,2.04 µM,3.57 µM,7.91 µM,0.36 µM,2.78 µM,does not show activity,
"COc1cc2c(OC(=O)C(c3ccccc3)C3CCCC3)c3c(c(-c4ccc5c(c4)OCO5)c2cc1OC)C(=O)OC3 (stereo not shown) [Formula VIII, 9-(benzo[d][1,3]dioxol-5-yl)-6,7-dimethoxy-1-oxo-1,3-dihydronaphtho[2,3-c]furan-4-yl 2-cyclopentyl-2-phenylacetate]",29(±3),24(±3),13(±3),8(±2),0(±0),36(±3),29(±4),13(±2),8(±2),0(±0),3.91 µM,3.14 µM,4.28 µM,1.32 µM,1.96 µM,1.05 µM,does not show activity,
"CO[C@H]1[C@H](OC)COC(Oc2ccc(-c3ccc4c(c3)OCO4)c3ccccc23)[C@@H]1O (stereo partly drawn) [Formula V, (3R,4R,5R)-2-(4-(benzo[d][1,3]dioxol-5-yl)naphthalen-1-yloxy)-4,5-dimethoxy-tetrahydro-2H-pyran-3-ol]",50(±5),40(±5),36(±3),21(±4),0(±0),40(±3),24(±3),12(±1),7(±2),0(±0),6.19 µM,4.61 µM,,3.45 µM,10.6 µM,,,does not show activity
